In patent US20230134843A1, “TREATMENT OF STEM CELL DEFICIENCY” (OSPEDALE SAN RAFFAELE S.R.L., priority 2020, published 2023):
Entries after “also recorded” stand apart in the source; their conditions may differ.

Target: T1, NK1R (Mus musculus, UniProt P30548)
T1 construct: NK1R is expressed by both corneal epithelial and stem cell-like cells; from tissue; host or cells: cornea / ocular surface of live C57BL6/N mice (topical dosing in vivo)
Experiment: Epithelial corneal damage by corneal fluorescein staining, acute ocular GVHD mouse model
Type: in vivo, mice
Details: Fosaprepitant 10 mg/mL topically six times a day (BM+T+Fosa); from day 14, p<0.05
Method: 10-week-old male BALB/C and C57BL/6N mice (Charles River Laboratory, Lecco, Italy) were used for all the experiments (n=5/each group). All mice were free from ocular surface disease at baseline. The housing conditions were controlled (temperature 22° C., light from 07:00-19:00, humidity 50%-60%), and fresh food and water were freely available. The animals were monitored 3 times per week for 28 days post-transplantation for in vivo slit-lamp microscopy imaging, ocular surface score and systemic GVHD score (FIG. 11A). Carbon dioxide inhalation and subsequent cervical dislocation were applied to euthanize the animals. All the experiments were approved by the Animal Care and Use Committee of the IRCCS San Raffaele Scientific Institute, in accordance with the ARVO Statement for the Use of Animals in Ophthalmic and Vision Research.
Allogenic BMT was conducted using the C57BL/6N and BALB/c mice as transplant donors and recipients, respectively. […]
Clinical examination was performed to evaluate the ocular disease progression. […] Tear production was quantified with phenol red thread test (Zone-Quick; Lacrimedics, Eastsound, Wash., USA). […] The length of the moistened thread was measured in both eyes and the average was used as lacrimal tear volume for comparative analysis.

T1 sequence (P30548 whole entry): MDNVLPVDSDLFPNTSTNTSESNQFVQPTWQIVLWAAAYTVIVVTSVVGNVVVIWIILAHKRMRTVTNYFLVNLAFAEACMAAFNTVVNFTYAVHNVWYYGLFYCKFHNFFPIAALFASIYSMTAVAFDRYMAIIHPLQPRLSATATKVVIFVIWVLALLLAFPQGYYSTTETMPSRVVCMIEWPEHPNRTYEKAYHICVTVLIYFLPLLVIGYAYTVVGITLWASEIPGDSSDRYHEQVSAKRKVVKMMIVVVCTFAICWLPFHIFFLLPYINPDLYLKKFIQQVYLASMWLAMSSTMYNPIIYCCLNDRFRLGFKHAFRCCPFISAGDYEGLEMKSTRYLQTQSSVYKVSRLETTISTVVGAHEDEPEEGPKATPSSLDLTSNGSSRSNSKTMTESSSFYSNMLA

## C[C@@H](O[C@H]1OCCN(Cc2nc(=O)n(P(=O)(O)O)[nH]2)[C@H]1c1ccc(F)cc1)c1cc(C(F)(F)F)cc(C(F)(F)F)c1 [Fosaprepitant, [3-{[(2R,3S)-2-[(1R)-1-[3,5-bis(trifluoromethyl)phenyl]ethoxy]-3-(4-fluorophenyl)morpholin-4-yl]methyl}-5-oxo-2H-1,2,4-triazol-1-yl]phosphonic acid]
  corneal fluorescein staining compared to BM+T mice: reduction; also recorded: significantly reduced
